{
  "source": "ChEMBL document CHEMBL1121592",
  "about": "“Mutagenicity of substituted (o-phenylenediamine)platinum dichloride in the Ames test. A quantitative structure-activity analysis” (J Med Chem, 1980)",
  "data": [
    {"tested_on": "Salmonella typhimurium", "assay": "Compound was tested in Ames test using Salmonella Typhimurium (TA-92). C is the molar concentration of compound producing 30 mutations/(10e 8) bacteria delivered", "type": "functional, organism-based", "details": "Salmonella enterica subsp. enterica serovar Typhimurium", "values": [
      {"substance": "Phenylene-1,3-diamine-platinum 2,2-dichloride-4,5-dimethoxy", "Log 1/C": 4.64},
      {"substance": "0-Phenylene-1,3-diamine-platinum 2,2-dichloride-4-methoxy", "Log 1/C": 5.65},
      {"substance": "0-Hexyl-1,3-diamine-platinum 2,2-dichloride", "Log 1/C": 4.22},
      {"substance": "0-Phenylene-1,3-diamine-platinum 2,2-dichloride-4-nitro", "Log 1/C": 8.65},
      {"substance": "0-Phenylene-1,3-diamine-platinum 2,2-dichloride-4-carboxylic acid methyl ester", "Log 1/C": 7},
      {"substance": "0-Phenylene-1,3-diamine-platinum 2,2-dichloride-3,4,5-trichloro", "Log 1/C": 7.73},
      {"substance": "0-Phenylene-1,3-diamine-platinum 2,2-dichloride-4-ethoxy", "Log 1/C": 5.6},
      {"substance": "CISPLATIN", "Log 1/C": 4.52},
      {"substance": "0-Phenylene-1,3-diamine-platinum 2,2-dichloride-4,5-dichloro", "Log 1/C": 6.89},
      {"substance": "0-Phenylene-1,3-diamine-platinum 2,2-dichloride-4-benzoyl", "Log 1/C": 7.52},
      {"substance": "4,5-benzoPhenylene-1,3-diamine-platinum 2,2-dichloride-", "Log 1/C": 5.92},
      {"substance": "0-Phenylene-1,3-diamine-platinum 2,2-dichloride-4-methyl", "Log 1/C": 5.6}
    ]}
  ]
}
